# Where two headings read alike, the source gives them in different places.
# Tests used:
# WI-38 cells [1] = experiment: Long-term effects on cell viability (5 days, ATP; morphology, PI imaging); assay type: cell-based; conditions: 10 μM; for Luminescence signal for ATP measurement, day-1 Average / Luminescence signal for ATP measurement, day-2 Average / Luminescence signal for ATP measurement, day-3 Average / Luminescence signal for ATP measurement, day-4 Average / Luminescence signal for ATP measurement, day-5 Average: n = 6; for viability at 10 µM: Homo sapiens, WI-38, 120 h, DMSO ctrl = 100.0%, read-out: ATP luminescence by day-5 normalized; for Luminescence signal for ATP measurement, day-5 Average / viability at 10 µM: day-5;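 for Luminescence signal for ATP measurement, day-2 Average: compounds at 10 µM with ATP read daily over 5 days of treatment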;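 for Luminescence signal for ATP measurement, day-3 Average: compounds at 10 µM with ATP read daily over 5 days of treatment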;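 for Luminescence signal for ATP measurement, day-4 Average: compounds at 10 µM with ATP read daily over 5 days of treatment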;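 for Luminescence signal for ATP measurement, day-5 Average: compounds at 10 µM with ATP read daily over 5 days of treatment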
# WI-38 cells [2] = conditions: for Percentage of propidium iodide-positive dead cells (no H2O2 stress treatment), at 10 uM: negative control 0.41% ± 0.23%
# Procedure: WI-38 cells were seeded on 384-well plates for 24 hrs and then incubated with small molecules for 24 hrs. […] Images were collected on an INCell Analyzer 2000 (GE) and analyzed with the Developer software.
# [3] = tested on: human dermal fibroblast (HDF) primary cells; experiment: H2O2-resistance in primary human dermal fibroblasts; assay type: cell-based; conditions: for Assay 6: H2O2-resistant, at 10 uM, human dermal fibroblast (HDF) primary cells: YES/NO; for fold induction at 10 µM: Homo sapiens
# mTOR = mTOR inhibition (RPS6 phosphorylation status), In-Cell Western; assay type: cell-based, human
# In short: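 WI-38 cells exposed to compounds at 5, 10 and 20 μM for 24 hrs. Fixed cells co-stained overnight at 4° C with anti-RPS and anti-pRPS6 (Ser-235/236) antibodies, then DyLight 680/800 secondaries. Phospho-RPS6 relative to total RPS6 read by near-infrared In-Cell Western imaging.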
# WI-38 cells [4] = experiment: CdCl2 (cadmium) resistance assay; assay type: cell-based, human; conditions: for fold induction at 10 µM: Homo sapiens, 12 h, normalized ATP measurement; for Assay 4: H2O2- & Cd-resistant / Assay 2: Cadmium-resistant: YES/NO; for Assay 2: Cadmium-resistant: * indicates partial
# In short: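 WI-38 cells were given compounds at five final concentrations (0.25–20 μM) in triplicate, followed by cadmium or MMS for 12 h. For MMS, medium was switched from OptiMEM+10% FBS to serum-free DMEM+2% BSA when compounds were added, 24 h before stressor. Two independent assays were run, analysed by global variance t-test.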
# [5] = Batch 1, day-0 luminescence = 320956 ± 24708
# [6] = Exp. 1, WI-38 cells, read-out: Exp. 1, under Cd2Cl2 stress treatment, at 10 uM (fold change)
# [7] = Exp. 2, WI-38 cells, read-out: Exp. 2, under Cd2Cl2 stress treatment, at 10 uM (fold change)
# [8] = WI-38 cells, 10 μM, both stressors
# [9] = score in summary of 38 core set hits
# [10] = Experiment 1, HDF cells, read-out: Experiment 1, HDF cells (under H2O2 stress treatment), at 10 uM (fold change)
# [11] = Experiment 2, HDF cells, read-out: Experiment 2, HDF cells (under H2O2 stress treatment), at 10 uM (fold change)
# [12] = Batch 2, day-0 luminescence = 229312 ± 17487
SMILES,"Luminescence signal for ATP measurement, day-1 Average (WI-38 cells [1]; [5])","O = Potential toxicity (WI-38 cells [1]; human, 5 days)","Q = Potential toxicity (WI-38 cells [1]; human, 5 days)","Assay 6: H2O2-resistant, at 10 uM, human dermal fibroblast (HDF) primary cells [3]",G = mTOR down-regulation (mTOR; 2-point score),G = mTOR down-regulation (mTOR; summary score),CdCl2-resistant (WI-38 cells [4]),H2O2- & CdCl2-resistant (WI-38 cells [4]),fold induction at 10 µM (WI-38 cells [4]; [6]),fold induction at 10 µM (WI-38 cells [4]; [7]),"CdCl2-resistant (WI-38 cells [4]; WI-38 cells, 10 μM)",H2O2- & CdCl2-resistant (WI-38 cells [4]; [8]),Assay 4: H2O2- & Cd-resistant (WI-38 cells [4]),Assay 2: Cadmium-resistant (WI-38 cells [4]),A = Cadmium resistant (WI-38 cells [4]; [9]),A = Cadmium resistant (WI-38 cells [4]; summary score),C = H2O2- & Cd-resistant (WI-38 cells [4]; summary score),"Percentage of propidium iodide-positive dead cells (no H2O2 stress treatment), at 10 uM (WI-38 cells [2])","fold induction at 10 µM [3, 10]","fold induction at 10 µM [3, 11]",further results
O=C(Nc1ccc(Cl)c(Cl)c1)c1ccc([N+](=O)[O-])o1 [Gr-1G],449436,1,0,YES,0,0,YES,YES,3.81,7.21,YES,YES,YES,YES,1,1,1,–,–,–,"Luminescence signal for ATP measurement, day-2 Average (WI-38 cells [1]; [5]): 530748; Luminescence signal for ATP measurement, day-3 Average (WI-38 cells [1]; [5]): 651695; Luminescence signal for ATP measurement, day-4 Average (WI-38 cells [1]; [5]): 866631; Luminescence signal for ATP measurement, day-5 Average (WI-38 cells [1]; [5]): 955703; viability at 10 µM (WI-38 cells [1]; Batch 1): 93.1%; PI cell-death imaging without H2O2 (indicating potential toxicity) (WI-38 cells [2]; Assay 8(k), without H2O2, at 10 uM): YES; PI-positive dead cells under normal conditions (WI-38 cells [2]; WI-38, no H2O2, control 0.4±0.2%): 7.1%±1.1%"
O=[N+]([O-])c1ccccc1S(=O)(=O)Nc1cccc2cccnc12 [Gr-3A],–,0,0,YES,0,0,YES,YES,1.93,1.64,YES,YES,YES,YES,1,1,1,"0.54% ± 0.16%,",2.38,1.67,"Reduction of ATP content after 5 days of continuous incubation (WI-38 cells [1]; human, 5 days): more than 40%"
Cc1ccc(S(=O)(=O)Nc2cccc3cccnc23)cc1 [Gr-3B],–,0,1,YES,0,0,–,–,2.1,2.88,–,–,–,–,0,0,0,"0.47% ± 0.20%,",3.1,1.59,"Luminescence signal for ATP measurement, day-1 Average (WI-38 cells [1]; [12]): 184710; Luminescence signal for ATP measurement, day-2 Average (WI-38 cells [1]; [12]): 110226; Luminescence signal for ATP measurement, day-3 Average (WI-38 cells [1]; [12]): 109008; Luminescence signal for ATP measurement, day-4 Average (WI-38 cells [1]; [12]): 52193; Luminescence signal for ATP measurement, day-5 Average (WI-38 cells [1]; [12]): 63138; viability at 10 µM (WI-38 cells [1]; Batch 2): 11.4%"
Nc1ccccc1S(=O)(=O)Nc1cccc2cccnc12 [Gr-3C],–,0,1,YES,0,0,–,–,0.06,0.4,–,–,–,–,0,0,0,"0.57% ± 0.24%,",6.59,1.69,"Luminescence signal for ATP measurement, day-1 Average (WI-38 cells [1]; [12]): 190045; Luminescence signal for ATP measurement, day-2 Average (WI-38 cells [1]; [12]): 194191; Luminescence signal for ATP measurement, day-3 Average (WI-38 cells [1]; [12]): 270505; Luminescence signal for ATP measurement, day-4 Average (WI-38 cells [1]; [12]): 244033; Luminescence signal for ATP measurement, day-5 Average (WI-38 cells [1]; [12]): 265285; viability at 10 µM (WI-38 cells [1]; Batch 2): 47.7%"
COc1ccc(C(=O)/C=C/c2ccc(F)cc2)c(OC)c1 [Gr-4A],501436,0,0,YES,0,0,YES,YES,1.98,1.66,YES,YES,YES,YES,1,1,1,"0.39% ± 0.14%,",7.16,2.35,"Luminescence signal for ATP measurement, day-2 Average (WI-38 cells [1]; [5]): 605711; Luminescence signal for ATP measurement, day-3 Average (WI-38 cells [1]; [5]): 772420; Luminescence signal for ATP measurement, day-4 Average (WI-38 cells [1]; [5]): 995321; Luminescence signal for ATP measurement, day-5 Average (WI-38 cells [1]; [5]): 1019996; viability at 10 µM (WI-38 cells [1]; Batch 1): 99.3%"
COc1ccc(C(=O)/C=C/c2ccccc2Br)c(OC)c1 [Gr-4B],–,0,0,YES,0,0,YES,YES,2,1.52,YES,YES,YES,YES,1,1,1,"0.36% ± 0.13%,",13.7,55.6,–

# Reference: US11413278B2, “Compounds and methods for promoting stress resistance” (priority 2015, dated 2022)
